In patent US20240209001A1, “HETEROCYCLIC DERIVATIVES AS JANUS KINASE INHIBITORS” (CHIESI FARMACEUTICI S.P. A., priority 2021, published 2024):

Experiments:
JAK 1 = JAK 1 (Homo sapiens (Human), UniProt P23458); assay: Biochemical potency on JAK1, TR-FRET LANCE Ultra kinase assay (compounds 1-92); settings: ATP at Km, read-out: JAK1 inhibitory activity (pIC50 class) (converted)
Procedure: (§1) Biochemical Potency on JAK1, JAK2, JAK3 and Tyk2 Assay Principle The objective of this study was to assess the capability of compounds to inhibit all 4 JAK isoforms activity in a cell-free environment. Assay for JAK 1, JAK 2, JAK 3 and TYK2 were performed by Time-resolved fluorescence resonance energy transfer (TR-FRET) technology. It consists in the interaction of two labelled binding partners detected by the energy transfer from an excited donor to an acceptor dye and measurement of light emission by the acceptor dye. LANCE Ultra kinase assay was used. In presence of JAK 1, JAK 2, JAK 3 and TYK2 kinases and ATP (corresponding to Km), the ULight peptide substrate (LANCE Ulight-JAK-1 ([…]) Peptide, Perkin Elmer, TRF0121) is phosphorylated. It is then captured by Eu-anti-phospho-substrate antibody (LANCE Eu-W1024 Anti-phosphotyrosine (PT66), Perkin Elmer, AD0069), which bring the Eu-chelate donor and ULight acceptor dyes into close proximity. Upon excitation at 320 nm, the Eu-chelate transfers its energy to the ULight dye, resulting in a fluorescent light emission at 665 nm. Compound Testing Serial dilutions of compounds in pure DMSO are prepared from 10 mM DMSO stock solutions. Compounds were tested in 384-well plate for 11 consecutive 5-fold dilutions starting from 20 μM highest concentration (20 μM-[…]). 200 nL of compound were transferred from mother plate to test plate by using Mosquito (TTP labtech). Assay was performed in 384-well Perkin Elmer test plate in 20 μL assay volume (kinase reaction) and 40 μL total volume (stopping reagent and antibody detection reagents). In 10 μL of substrate solution (peptide+ATP) 30/50/20/10 nM of peptide and 20/0.7/0.2/12 μM of ATP were added for JAK 1, JAK 2, JAK 3 and TYK2 respectively. 10 μL of enzyme solution was added to kinase reaction at these concentrations: 0.15/0.083/0.025/0.144 ng/μL of JAK 1, JAK 2, JAK 3 and TYK2 respectively. After shaking and 1.5 h of incubation at r.t., 20 μL of Stop (10 μL EDTA) and Detection mixture (10 μL Europium-anti-phospho antibody, final: 0.5 nM) were added. Reading was performed after 1 h of incubation on a EnVision 2104 reader (Perkin Elmer). Calculation of IC50 data, curves and QC analysis was performed by using Excel tool and GraphPadPrism software, v9. Briefly, individual concentration-effect curves are generated by plotting the logarithm of the tested concentration of tested compounds (X) vs. corresponding percent inhibition values (Y) using least squares (ordinary) fit. Best fit IC50 values are calculated using Log(inhibitor) vs. normalized response-Variable slope equation, where Y=100/(1+10^((Log IC50-X)*HillSlope)). QC criteria parameters (Z', S:B, R2, HillSlope) were checked for every IC50 curve. Calculation of IC50 data, curves and QC analysis were made using Excel tools and GraphPadPrism software. QC criteria parameters: Z'≥0.5, Hill Slope range 0.5 to 5, S:B>2.

JAK 2 = JAK 2 (Homo sapiens (Human), UniProt O60674); assay: Biochemical potency on JAK2, TR-FRET LANCE Ultra kinase assay (compounds 1-92); settings: ATP at Km, read-out: JAK2 inhibitory activity (pIC50 class) (converted)
Procedure: as §1

JAK 3 = JAK 3 (Homo sapiens (Human), UniProt P52333); assay: Biochemical potency on JAK3, TR-FRET LANCE Ultra kinase assay (compounds 1-92); settings: ATP at Km, read-out: JAK3 inhibitory activity (pIC50 class) (converted)
Procedure: as §1

TYK2 = TYK2 (Homo sapiens (Human), UniProt P29597); assay: Biochemical potency on Tyk2, TR-FRET LANCE Ultra kinase assay (compounds 1-92); settings: ATP at Km, read-out: Tyk2 inhibitory activity (pIC50 class) (converted)
Procedure: as §1

TYK2, sequence (P29597 whole entry): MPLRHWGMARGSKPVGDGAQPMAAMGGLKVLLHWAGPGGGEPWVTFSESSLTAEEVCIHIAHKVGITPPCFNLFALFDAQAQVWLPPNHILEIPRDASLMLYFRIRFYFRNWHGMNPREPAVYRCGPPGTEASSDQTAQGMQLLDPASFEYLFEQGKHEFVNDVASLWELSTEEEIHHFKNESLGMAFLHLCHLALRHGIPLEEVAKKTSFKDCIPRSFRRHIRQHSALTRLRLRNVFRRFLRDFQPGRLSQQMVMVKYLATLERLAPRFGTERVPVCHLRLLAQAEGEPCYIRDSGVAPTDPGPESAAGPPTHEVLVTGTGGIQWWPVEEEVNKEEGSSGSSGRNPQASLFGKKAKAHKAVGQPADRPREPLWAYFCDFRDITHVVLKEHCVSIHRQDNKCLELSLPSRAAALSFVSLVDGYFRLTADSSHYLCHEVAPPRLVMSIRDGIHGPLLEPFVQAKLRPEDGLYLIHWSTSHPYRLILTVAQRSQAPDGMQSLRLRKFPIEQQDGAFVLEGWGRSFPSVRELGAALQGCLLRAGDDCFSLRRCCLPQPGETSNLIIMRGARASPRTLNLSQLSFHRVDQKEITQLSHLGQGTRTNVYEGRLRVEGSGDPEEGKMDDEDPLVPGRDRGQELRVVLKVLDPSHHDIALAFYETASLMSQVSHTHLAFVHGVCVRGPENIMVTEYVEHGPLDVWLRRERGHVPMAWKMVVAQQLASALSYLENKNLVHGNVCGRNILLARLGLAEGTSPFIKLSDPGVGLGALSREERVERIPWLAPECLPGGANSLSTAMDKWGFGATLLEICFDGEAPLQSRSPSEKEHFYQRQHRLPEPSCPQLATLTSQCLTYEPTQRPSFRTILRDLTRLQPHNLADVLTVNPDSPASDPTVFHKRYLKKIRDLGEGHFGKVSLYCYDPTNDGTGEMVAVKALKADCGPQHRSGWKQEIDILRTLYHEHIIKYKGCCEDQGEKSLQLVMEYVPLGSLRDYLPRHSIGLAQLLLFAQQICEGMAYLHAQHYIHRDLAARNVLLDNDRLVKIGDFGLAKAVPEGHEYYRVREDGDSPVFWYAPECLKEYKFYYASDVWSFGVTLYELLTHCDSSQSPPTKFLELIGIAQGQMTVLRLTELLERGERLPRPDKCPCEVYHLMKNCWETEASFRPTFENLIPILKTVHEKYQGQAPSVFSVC
JAK 3, sequence (P52333 whole entry): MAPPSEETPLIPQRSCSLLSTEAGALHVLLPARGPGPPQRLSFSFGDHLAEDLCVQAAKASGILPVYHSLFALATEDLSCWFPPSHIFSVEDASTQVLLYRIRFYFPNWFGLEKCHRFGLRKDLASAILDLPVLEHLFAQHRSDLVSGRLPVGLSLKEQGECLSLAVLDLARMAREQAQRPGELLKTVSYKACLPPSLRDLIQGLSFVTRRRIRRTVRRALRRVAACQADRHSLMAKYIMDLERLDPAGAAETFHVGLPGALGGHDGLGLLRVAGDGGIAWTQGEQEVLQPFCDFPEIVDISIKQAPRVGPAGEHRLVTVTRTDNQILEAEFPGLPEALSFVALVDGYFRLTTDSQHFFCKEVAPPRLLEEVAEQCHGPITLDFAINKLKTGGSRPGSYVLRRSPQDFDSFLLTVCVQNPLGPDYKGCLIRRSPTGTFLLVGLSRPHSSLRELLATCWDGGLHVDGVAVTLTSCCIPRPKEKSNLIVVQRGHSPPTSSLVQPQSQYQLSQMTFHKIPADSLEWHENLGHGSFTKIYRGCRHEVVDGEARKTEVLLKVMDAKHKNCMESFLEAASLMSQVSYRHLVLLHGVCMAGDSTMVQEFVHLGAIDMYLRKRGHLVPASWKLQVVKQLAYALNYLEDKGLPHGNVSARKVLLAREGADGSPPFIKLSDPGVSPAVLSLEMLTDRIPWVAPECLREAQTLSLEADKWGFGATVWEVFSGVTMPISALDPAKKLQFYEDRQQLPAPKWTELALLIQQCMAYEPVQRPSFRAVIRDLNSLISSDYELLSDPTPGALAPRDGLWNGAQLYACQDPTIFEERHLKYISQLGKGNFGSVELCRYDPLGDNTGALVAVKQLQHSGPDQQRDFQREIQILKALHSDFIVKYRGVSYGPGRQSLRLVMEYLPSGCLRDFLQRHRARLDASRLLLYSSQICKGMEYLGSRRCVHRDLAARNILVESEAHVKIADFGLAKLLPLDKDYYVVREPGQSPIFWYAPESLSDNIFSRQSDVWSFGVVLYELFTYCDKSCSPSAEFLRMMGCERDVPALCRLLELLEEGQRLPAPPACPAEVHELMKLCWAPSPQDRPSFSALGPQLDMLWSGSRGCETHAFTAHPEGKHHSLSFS
JAK 2, sequence (O60674 whole entry): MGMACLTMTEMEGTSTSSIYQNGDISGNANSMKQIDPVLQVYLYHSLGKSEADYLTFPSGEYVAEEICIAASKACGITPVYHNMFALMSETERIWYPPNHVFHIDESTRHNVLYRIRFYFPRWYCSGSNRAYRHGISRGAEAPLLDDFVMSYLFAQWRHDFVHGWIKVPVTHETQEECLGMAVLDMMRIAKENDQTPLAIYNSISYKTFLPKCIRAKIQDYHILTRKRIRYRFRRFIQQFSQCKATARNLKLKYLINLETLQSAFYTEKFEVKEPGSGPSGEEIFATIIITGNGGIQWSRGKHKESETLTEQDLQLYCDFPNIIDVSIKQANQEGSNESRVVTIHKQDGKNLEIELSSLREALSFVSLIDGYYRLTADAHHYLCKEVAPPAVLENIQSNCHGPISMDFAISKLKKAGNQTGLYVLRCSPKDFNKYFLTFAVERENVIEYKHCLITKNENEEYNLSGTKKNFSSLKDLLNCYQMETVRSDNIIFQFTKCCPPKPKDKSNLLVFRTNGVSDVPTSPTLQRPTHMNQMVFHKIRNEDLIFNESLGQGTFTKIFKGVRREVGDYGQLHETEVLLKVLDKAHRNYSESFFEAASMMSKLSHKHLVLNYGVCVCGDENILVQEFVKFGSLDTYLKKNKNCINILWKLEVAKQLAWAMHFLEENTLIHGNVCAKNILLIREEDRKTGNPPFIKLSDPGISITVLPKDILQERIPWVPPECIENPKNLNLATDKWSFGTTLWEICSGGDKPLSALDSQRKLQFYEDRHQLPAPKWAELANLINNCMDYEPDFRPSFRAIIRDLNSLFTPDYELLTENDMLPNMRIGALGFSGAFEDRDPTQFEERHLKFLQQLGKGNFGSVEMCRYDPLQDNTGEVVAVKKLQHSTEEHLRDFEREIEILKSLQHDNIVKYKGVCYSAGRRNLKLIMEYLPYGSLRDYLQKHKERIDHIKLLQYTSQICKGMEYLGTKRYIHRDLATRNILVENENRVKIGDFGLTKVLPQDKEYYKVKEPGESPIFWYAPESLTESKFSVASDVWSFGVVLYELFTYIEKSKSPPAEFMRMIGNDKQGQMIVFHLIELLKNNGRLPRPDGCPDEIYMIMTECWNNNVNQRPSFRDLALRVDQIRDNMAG
JAK 1, sequence (P23458 whole entry, canonical isoform): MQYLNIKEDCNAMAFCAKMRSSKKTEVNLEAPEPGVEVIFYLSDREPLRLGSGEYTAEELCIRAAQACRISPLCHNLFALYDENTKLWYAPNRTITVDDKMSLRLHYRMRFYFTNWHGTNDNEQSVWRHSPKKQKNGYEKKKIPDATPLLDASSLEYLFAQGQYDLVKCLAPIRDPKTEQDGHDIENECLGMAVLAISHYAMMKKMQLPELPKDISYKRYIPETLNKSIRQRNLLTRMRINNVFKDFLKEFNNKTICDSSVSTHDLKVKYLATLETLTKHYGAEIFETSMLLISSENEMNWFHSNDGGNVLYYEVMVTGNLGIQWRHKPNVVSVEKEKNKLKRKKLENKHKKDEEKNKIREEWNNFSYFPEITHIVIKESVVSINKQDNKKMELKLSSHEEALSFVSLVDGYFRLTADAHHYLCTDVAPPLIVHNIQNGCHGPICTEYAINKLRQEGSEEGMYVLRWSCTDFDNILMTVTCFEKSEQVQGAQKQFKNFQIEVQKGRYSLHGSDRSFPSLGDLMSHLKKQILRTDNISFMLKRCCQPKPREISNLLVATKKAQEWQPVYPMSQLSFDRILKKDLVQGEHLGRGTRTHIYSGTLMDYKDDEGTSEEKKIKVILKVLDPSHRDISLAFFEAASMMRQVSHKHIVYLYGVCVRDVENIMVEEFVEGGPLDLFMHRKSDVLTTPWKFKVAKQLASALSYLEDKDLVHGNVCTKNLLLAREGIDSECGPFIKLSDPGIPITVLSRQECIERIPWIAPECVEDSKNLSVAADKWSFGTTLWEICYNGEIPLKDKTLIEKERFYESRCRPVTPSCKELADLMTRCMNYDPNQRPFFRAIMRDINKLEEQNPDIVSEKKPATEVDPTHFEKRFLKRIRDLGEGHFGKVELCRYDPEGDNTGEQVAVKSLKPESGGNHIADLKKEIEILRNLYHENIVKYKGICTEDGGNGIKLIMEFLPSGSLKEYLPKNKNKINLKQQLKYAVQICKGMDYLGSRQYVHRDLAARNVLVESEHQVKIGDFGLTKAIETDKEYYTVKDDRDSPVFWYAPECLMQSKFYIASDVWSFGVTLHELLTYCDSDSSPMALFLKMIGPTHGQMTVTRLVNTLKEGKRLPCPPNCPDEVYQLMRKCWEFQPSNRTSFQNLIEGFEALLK

| SMILES | IC50 (JAK 1) [nM] | IC50 (JAK 2) [nM] | IC50 (JAK 3) [nM] | IC50 (TYK2) [nM] |
| --- | --- | --- | --- | --- |
| COc1cc(NS(C)(=O)=O)ccc1-n1nc(NCC2CN(C)CCO2)c2cnc(-c3cnn4cccnc34)cc21 (racemic) [Example 28, N-(3-methoxy-4-(3-(((4-methylmorpholin-2-yl)methyl)amino)-6-(pyrazolo[1,5-a]pyrimidin-3-yl)-1H-pyrazolo[4,3-c]pyridin-1-yl)phenyl)methanesulfonamide] | ≤ 5.01 | ≤ 5.01 | ≤ 5.01 | 5.01 to 50.1 |
| COc1cc(NS(C)(=O)=O)ccc1-n1nc(NC(=O)C2CCN(C)C2)c2cnc(-c3cnn4cccnc34)cc21 (racemic) [Example 42, N-(1-(2-methoxy-4-(methylsulfonamido)phenyl)-6-(pyrazolo[1,5-a]pyrimidin-3-yl)-1H-pyrazolo[4,3-c]pyridin-3-yl)-1-methylpyrrolidine-3-carboxamide] | 5.01 to 50.1 | 5.01 to 50.1 | 5.01 to 50.1 | 5.01 to 50.1 |
| COc1cc(NS(C)(=O)=O)ccc1-n1nc(C)c2cnc(-c3cnn4cccnc34)cc21 [Example 1, N-(3-methoxy-4-(3-methyl-6-(pyrazolo[1,5-a]pyrimidin-3-yl)-1H-pyrazolo[4,3-c]pyridin-1-yl)phenyl)methanesulfonamide] | ≤ 5.01 | ≤ 5.01 | ≤ 5.01 | 5.01 to 50.1 |
| COc1cc(NS(=O)(=O)CC2CCCO2)ccc1-n1nc(C)c2cnc(-c3cnn4cccnc34)cc21 (stereo not drawn) [Example 2, N-(3-methoxy-4-(3-methyl-6-(pyrazolo[1,5-a]pyrimidin-3-yl)-1H-pyrazolo[4,3-c]pyridin-1-yl)phenyl)-1-(tetrahydrofuran-2-yl)methanesulfonamide] | 5.01 to 50.1 | ≤ 5.01 | 5.01 to 50.1 | 5.01 to 50.1 |
| COc1cc(NS(=O)(=O)C2CCOCC2)ccc1-n1nc(C)c2cnc(-c3cnn4cccnc34)cc21 [Example 3, N-(3-methoxy-4-(3-methyl-6-(pyrazolo[1,5-a]pyrimidin-3-yl)-1H-pyrazolo[4,3-c]pyridin-1-yl)phenyl)tetrahydro-2H-pyran-4-sulfonamide] | 5.01 to 50.1 | ≤ 5.01 | 5.01 to 50.1 | > 50.1 |
| CCCS(=O)(=O)Nc1ccc(-n2nc(C)c3cnc(-c4cnn5cccnc45)cc32)c(OC)c1 [Example 4, N-(3-methoxy-4-(3-methyl-6-(pyrazolo[1,5-a]pyrimidin-3-yl)-1H-pyrazolo[4,3-c]pyridin-1-yl)phenyl)propane-1-sulfonamide] | ≤ 5.01 | ≤ 5.01 | ≤ 5.01 | 5.01 to 50.1 |
| COc1cc(NS(=O)(=O)CC2CC2)ccc1-n1nc(C)c2cnc(-c3cnn4cccnc34)cc21 [Example 5, 1-cyclopropyl-N-(3-methoxy-4-(3-methyl-6-(pyrazolo[1,5-a]pyrimidin-3-yl)-1H-pyrazolo[4,3-c]pyridin-1-yl)phenyl)methanesulfonamide] | ≤ 5.01 | ≤ 5.01 | ≤ 5.01 | 5.01 to 50.1 |
| COc1cc(NS(=O)(=O)C2CC2)ccc1-n1nc(C)c2cnc(-c3cnn4cccnc34)cc21 [Example 6, N-(3-methoxy-4-(3-methyl-6-(pyrazolo[1,5-a]pyrimidin-3-yl)-1H-pyrazolo[4,3-c]pyridin-1-yl)phenyl)cyclopropanesulfonamide] | ≤ 5.01 | ≤ 5.01 | ≤ 5.01 | 5.01 to 50.1 |
| Cc1nn(-c2ccc(NS(C)(=O)=O)cc2OC(F)F)c2cc(-c3cnn4cccnc34)ncc12 [Example 7, N-(3-(difluoromethoxy)-4-(3-methyl-6-(pyrazolo[1,5-a]pyrimidin-3-yl)-1H-pyrazolo[4,3-c]pyridin-1-yl)phenyl)methanesulfonamide] | ≤ 5.01 | ≤ 5.01 | ≤ 5.01 | 5.01 to 50.1 |
| COc1cc(NS(=O)(=O)C2COC2)ccc1-n1nc(C)c2cnc(-c3cnn4cccnc34)cc21 [Example 8, N-(3-methoxy-4-(3-methyl-6-(pyrazolo[1,5-a]pyrimidin-3-yl)-1H-pyrazolo[4,3-c]pyridin-1-yl)phenyl)oxetane-3-sulfonamide] | ≤ 5.01 | ≤ 5.01 | ≤ 5.01 | 5.01 to 50.1 |
| COc1cc(NS(=O)(=O)C2CCOC2)ccc1-n1nc(C)c2cnc(-c3cnn4cccnc34)cc21 (stereo not drawn) [Example 9, N-(3-methoxy-4-(3-methyl-6-(pyrazolo[1,5-a]pyrimidin-3-yl)-1H-pyrazolo[4,3-c]pyridin-1-yl)phenyl)tetrahydrofuran-3-sulfonamide] | 5.01 to 50.1 | ≤ 5.01 | 5.01 to 50.1 | 5.01 to 50.1 |
| COc1cc(NS(=O)(=O)c2cnn(C)c2)ccc1-n1nc(C)c2cnc(-c3cnn4cccnc34)cc21 [Example 10, N-(3-methoxy-4-(3-methyl-6-(pyrazolo[1,5-a]pyrimidin-3-yl)-1H-pyrazolo[4,3-c]pyridin-1-yl)phenyl)-1-methyl-1H-pyrazole-4-sulfonamide] | ≤ 5.01 | ≤ 5.01 | 5.01 to 50.1 | 5.01 to 50.1 |
| COc1cc(NS(C)(=O)=O)cnc1-n1nc(C)c2cnc(-c3cnn4cccnc34)cc21 [Example 11, N-(5-methoxy-6-(3-methyl-6-(pyrazolo[1,5-a]pyrimidin-3-yl)-1H-pyrazolo[4,3-c]pyridin-1-yl)pyridin-3-yl)methanesulfonamide] | ≤ 5.01 | ≤ 5.01 | ≤ 5.01 | > 50.1 |
| COc1cc(NS(C)(=O)=O)c(F)cc1-n1nc(C)c2cnc(-c3cnn4cccnc34)cc21 [Example 12, N-(2-fluoro-5-methoxy-4-(3-methyl-6-(pyrazolo[1,5-a]pyrimidin-3-yl)-1H-pyrazolo[4,3-c]pyridin-1-yl)phenyl)methanesulfonamide] | 5.01 to 50.1 | 5.01 to 50.1 | 5.01 to 50.1 | > 50.1 |
| COc1cc(NS(=O)(=O)CCC(N)=O)ccc1-n1nc(C)c2cnc(-c3cnn4cccnc34)cc21 [Example 13, 3-(N-(3-methoxy-4-(3-methyl-6-(pyrazolo[1,5-a]pyrimidin-3-yl)-1H-pyrazolo[4,3-c]pyridin-1-yl)phenyl)sulfamoyl)propanamide] | ≤ 5.01 | ≤ 5.01 | ≤ 5.01 | 5.01 to 50.1 |
| COc1cc(NS(=O)(=O)CC(N)=O)ccc1-n1nc(C)c2cnc(-c3cnn4cccnc34)cc21 [Example 14, 2-(N-(3-methoxy-4-(3-methyl-6-(pyrazolo[1,5-a]pyrimidin-3-yl)-1H-pyrazolo[4,3-c]pyridin-1-yl)phenyl)sulfamoyl)acetamide] | ≤ 5.01 | ≤ 5.01 | ≤ 5.01 | 5.01 to 50.1 |
| COc1cc(C#N)ccc1-n1nc(C)c2cnc(-c3cnn4cccnc34)cc21 [Example 15, 3-methoxy-4-(3-methyl-6-(pyrazolo[1,5-a]pyrimidin-3-yl)-1H-pyrazolo[4,3-c]pyridin-1-yl)benzonitrile] | 5.01 to 50.1 | 5.01 to 50.1 | 5.01 to 50.1 | > 50.1 |
| CNc1cc(OC)c(-n2nc(C)c3cnc(-c4cnn5cccnc45)cc32)cn1 [Example 16, 4-methoxy-N-methyl-5-(3-methyl-6-(pyrazolo[1,5-a]pyrimidin-3-yl)-1H-pyrazolo[4,3-c]pyridin-1-yl)pyridin-2-amine] | 5.01 to 50.1 | 5.01 to 50.1 | 5.01 to 50.1 | > 50.1 |
